# System: P300/CBP
# Experiment: P300/CBP cellular protein degradation
# Format: cell-based
# Description: Cultured cells were washed with cold PBS once and lysed in cold RIPA buffer supplemented with protease inhibitors and phosphatase inhibitors (Beyotime Biotechnology). The solutions were then incubated at 4° C. for 30 min with gentle agitation to fully lysed cells. Cell lysates were centrifuged at 13,000 rpm for 10 min at 4° C. and pellets were discarded. Total protein concentrations in the lysates were determined following BCA assays (Beyotime Biotechnology). Cell lysates were mixed with Laemmli loading buffer and heated at 99° C. for 5 min. Proteins were resolved on SDS-PAGE and visualized using Western ECL Substrate kits on a ChemiDoc MP Imaging system (Bio-Rad). Protein bands were quantitated using the Image Lab software provided by Bio-Rad.
row,Structure (SMILES),P300/CBP Degradation (100 nM)
1,"CC(=O)N1CCc2c(c(N3CCCc4cc(-c5cnn(C)c5)c(C(F)F)cc43)nn2C2CCN(CC(=O)NCCCCCCCCNc3ccc(C(=O)Nc4ncc(C)s4)c(C)c3)CC2)C1 [CPD-195, 4-((8-(2-(4-(5-Acetyl-3-(7-(difluoromethyl)-6-(1-methyl-1H-pyrazol-4-yl)-3,4-dihydroquinolin-1(2H)-yl)-4,5,6,7-tetrahydro-1H-pyrazolo[4,3-c]pyridin-1-yl)piperidin-1-yl)acetamido)octyl)amino)-2-methyl-N-(5-methylthiazol-2-yl)benzamide]",D (degradation activity < 30%)
2,"CC(=O)N1CCc2c(c(N3CCCc4cc(-c5cnn(C)c5)c(C(F)F)cc43)nn2C2CCN(CC(=O)NCCCCCCCCCNc3ccc(C(=O)Nc4ncc(C)s4)c(C)c3)CC2)C1 [CPD-196, 4-((9-(2-(4-(5-Acetyl-3-(7-(difluoromethyl)-6-(1-methyl-1H-pyrazol-4-yl)-3,4-dihydroquinolin-1(2H)-yl)-4,5,6,7-tetrahydro-1H-pyrazolo[4,3-c]pyridin-1-yl)piperidin-1-yl)acetamido)nonyl)amino)-2-methyl-N-(5-methylthiazol-2-yl)benzamide]",D (degradation activity < 30%)
3,"CC(=O)N1CCc2c(c(N3CCCc4cc(-c5cnn(C)c5)c(C(F)F)cc43)nn2C2CCN(CC(=O)NCCOCCNc3ccc(C(=O)Nc4ncc(C)s4)c(C)c3)CC2)C1 [CPD-197, 4-((2-(2-(2-(4-(5-Acetyl-3-(7-(difluoromethyl)-6-(1-methyl-1H-pyrazol-4-yl)-3,4-dihydroquinolin-1(2H)-yl)-4,5,6,7-tetrahydro-1H-pyrazolo[4,3-c]pyridin-1-yl)piperidin-1-yl)acetamido)ethoxy)ethyl)amino)-2-methyl-N-(5-methylthiazol-2-yl)benzamide]",D (degradation activity < 30%)
4,"CC(=O)N1CCc2c(c(N3CCCc4cc(-c5cnn(C)c5)c(C(F)F)cc43)nn2C2CCN(CC(=O)NCCOCCOCCNc3ccc(C(=O)Nc4ncc(C)s4)c(C)c3)CC2)C1 [CPD-198, 4-((2-(2-(2-(2-(4-(5-Acetyl-3-(7-(difluoromethyl)-6-(1-methyl-1H-pyrazol-4-yl)-3,4-dihydroquinolin-1(2H)-yl)-4,5,6,7-tetrahydro-1H-pyrazolo[4,3-c]pyridin-1-yl)piperidin-1-yl)acetamido)ethoxy)ethoxy)ethyl)amino)-2-methyl-N-(5-methylthiazol-2-yl)benzamide]",D (degradation activity < 30%)
5,"CC(=O)N1CCc2c(c(N3CCCc4cc(-c5cnn(C)c5)c(C(F)F)cc43)nn2C2CCN(C(=O)CCC(=O)Nc3ccccc3C(=O)Nc3nc(C)c([N+](=O)[O-])s3)CC2)C1 [CPD-199, 2-(4-(4-(5-Acetyl-3-(7-(difluoromethyl)-6-(1-methyl-1H-pyrazol-4-yl)-3,4-dihydroquinolin-1(2H)-yl)-4,5,6,7-tetrahydro-1H-pyrazolo[4,3-c]pyridin-1-yl)piperidin-1-yl)-4-oxobutanamido)-N-(4-methyl-5-nitrothiazol-2-yl)benzamide]",D (degradation activity < 30%)
6,"CC(=O)N1CCc2c(c(N3CCCc4cc(-c5cnn(C)c5)c(C(F)F)cc43)nn2C2CCN(C(=O)CCCC(=O)Nc3ccccc3C(=O)Nc3nc(C)c([N+](=O)[O-])s3)CC2)C1 [CPD-200, 2-(5-(4-(5-Acetyl-3-(7-(difluoromethyl)-6-(1-methyl-1H-pyrazol-4-yl)-3,4-dihydroquinolin-1(2H)-yl)-4,5,6,7-tetrahydro-1H-pyrazolo[4,3-c]pyridin-1-yl)piperidin-1-yl)-5-oxopentanamido)-N-(4-methyl-5-nitrothiazol-2-yl)benzamide]",D (degradation activity < 30%)
